One data set has as its system Male ICR mice. Nature of the data set: Mouse defecation experiment. The settings on record: mean±standard error. It counts as in vivo. As for the experimental part: Mouse Defecation Experiment
Male ICR mice (6-7 weeks old) were used after an acclimation period for about 1 week. A test drug (1 mg/kg or 3 mg/kg) was suspended in 0.5% methylcellulose solution and orally administered at a volume of 10 mL/kg, and the number of feces 2 hr later was counted. Only 0.5% methylcellulose was administered to a solvent administration group.

Data set [1] in a line: Mouse PK test (cassette dosing). The settings on record: male, ICR; for Tmax: mouse plasma, time to reach maximum plasma concentration, oral 1 mg/kg; for MRT / clearance: plasma, mouse, intravenous 0.1 mg/kg; for MRT: mean residence time; for clearance: total clearance, read-out: CL total (converted). It counts as in vivo. As for the experimental part: As the mouse, 8-week-old male ICR mice (Japan SLC, Inc.) were used. They were fed on a solid commercially available diet (CE-2, CLEA Japan, Inc.) and allowed to freely ingest tap water as the drinking water. An intravenous administration solution for the mice was prepared by weighing a test compound, dissolving same in dimethylacetamide (DMA) (Wako Pure Chemical Industries, Ltd.), adding the same volume of 1,3-butanediol (Wako Pure Chemical Industries, Ltd.) and mixing by stirring to give a DMA:1,3-butanediol (1:1, v/v) solution. An oral administration solution was prepared by weighing a test compound, pulverizing same in an agate mortar, and gradually adding 0.5 w/v % aqueous methylcellulose solution to give a suspension. For intravenous administration, the solution was administered into femoral vein of the mice at 0.1 mg/mL/kg (salt converted to free form). For oral administration, the suspension was administered to the mice at 1 mg/5 mL/kg (salt converted to free form). The cassette dosing method was used for the both administration routes, and the test compound was administered in the following manner.
In the case of intravenous administration, blood samples were collected from the tail vein at 5, 10, 15, 30 min, 1, 2, 4, 8 hr after administration, an anticoagulation treatment with heparin sodium (Shimizu Pharmaceutical Co., Ltd.) was performed, and plasma was collected after centrifugation and subjected to the measurement of drug concentration. In the case of oral administration, blood samples were collected from the tail vein at 15, 30 min, 1, 2, 4, 8 hr after administration, an anticoagulation treatment with heparin sodium was performed, and plasma was collected after centrifugation and subjected to the measurement of drug concentration.
All drug concentrations were measured by LC-MS/MS analysis. For a pharmacokinetics test, the plasma (5 μL) was placed in a tube, acetonitrile (115 μL) containing internal standard solution was added and they were mixed on a vortex mixer. Thereafter, the mixture was centrifuged (5000 rpm, 5 min, 4° C.). The supernatant (100 μL) after centrifugation was added to 10 mmol/L ammonium formate (100 μL) added earlier and mixed therewith. This sample was injected to LC/MS/MS. […] MS/MS used was AB Sciex TQ5500-MPX (Applied Biosystems).
Tmax: time to reach maximum plasma concentration
iv: intravenous administration
CL total: total clearance

The target of another data set is T1, MDR1 (Homo sapiens, UniProt P08183).
T1 construct: expressed in transfected cells
Nature of the data set: MDR1 membrane permeability test. It counts as in vitro ADME. The settings on record: pH 7.4, efflux ratio (ER), Papp B to A / A to B, human MDR1-expressing LLC-PK1 cells, read-out: MDR1 substrate screening 1 μM (MDRSUB1)/Ratio (NUMBER). The gist of the method:
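Human MDR1-expressing LLC-PK1 cells were grown for 3 days on 96-well polyethylene terephthalate Transwell supports (0.4 μm pores, 0.143 cm^2) seeded at 3.45×10^4 cells/well. After a 30 min preincubation in M199 medium with 10 mmol/L HEPES and 1% BSA (pH 7.4), drug was added apically or basolaterally. After 1 hr at 37° C, the opposite side was sampled and analyzed by LC-MS/MS. Efflux ratio was calculated from Papp B to A versus A to B.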

This is an account of results in patent US11560372B2, “Heterocyclic compounds useful as modulators of acetylcholine receptors” (TAKEDA PHARMACEUTICAL COMPANY LIMITED, priority 2017, dated 2023).

The structures appear in SMILES notation.

Broadly, the Tmax is the time from dosing to the highest level. As usually defined, the MRT is the average time that molecules of a dose stay in the body.

T1 sequence (P08183 whole entry): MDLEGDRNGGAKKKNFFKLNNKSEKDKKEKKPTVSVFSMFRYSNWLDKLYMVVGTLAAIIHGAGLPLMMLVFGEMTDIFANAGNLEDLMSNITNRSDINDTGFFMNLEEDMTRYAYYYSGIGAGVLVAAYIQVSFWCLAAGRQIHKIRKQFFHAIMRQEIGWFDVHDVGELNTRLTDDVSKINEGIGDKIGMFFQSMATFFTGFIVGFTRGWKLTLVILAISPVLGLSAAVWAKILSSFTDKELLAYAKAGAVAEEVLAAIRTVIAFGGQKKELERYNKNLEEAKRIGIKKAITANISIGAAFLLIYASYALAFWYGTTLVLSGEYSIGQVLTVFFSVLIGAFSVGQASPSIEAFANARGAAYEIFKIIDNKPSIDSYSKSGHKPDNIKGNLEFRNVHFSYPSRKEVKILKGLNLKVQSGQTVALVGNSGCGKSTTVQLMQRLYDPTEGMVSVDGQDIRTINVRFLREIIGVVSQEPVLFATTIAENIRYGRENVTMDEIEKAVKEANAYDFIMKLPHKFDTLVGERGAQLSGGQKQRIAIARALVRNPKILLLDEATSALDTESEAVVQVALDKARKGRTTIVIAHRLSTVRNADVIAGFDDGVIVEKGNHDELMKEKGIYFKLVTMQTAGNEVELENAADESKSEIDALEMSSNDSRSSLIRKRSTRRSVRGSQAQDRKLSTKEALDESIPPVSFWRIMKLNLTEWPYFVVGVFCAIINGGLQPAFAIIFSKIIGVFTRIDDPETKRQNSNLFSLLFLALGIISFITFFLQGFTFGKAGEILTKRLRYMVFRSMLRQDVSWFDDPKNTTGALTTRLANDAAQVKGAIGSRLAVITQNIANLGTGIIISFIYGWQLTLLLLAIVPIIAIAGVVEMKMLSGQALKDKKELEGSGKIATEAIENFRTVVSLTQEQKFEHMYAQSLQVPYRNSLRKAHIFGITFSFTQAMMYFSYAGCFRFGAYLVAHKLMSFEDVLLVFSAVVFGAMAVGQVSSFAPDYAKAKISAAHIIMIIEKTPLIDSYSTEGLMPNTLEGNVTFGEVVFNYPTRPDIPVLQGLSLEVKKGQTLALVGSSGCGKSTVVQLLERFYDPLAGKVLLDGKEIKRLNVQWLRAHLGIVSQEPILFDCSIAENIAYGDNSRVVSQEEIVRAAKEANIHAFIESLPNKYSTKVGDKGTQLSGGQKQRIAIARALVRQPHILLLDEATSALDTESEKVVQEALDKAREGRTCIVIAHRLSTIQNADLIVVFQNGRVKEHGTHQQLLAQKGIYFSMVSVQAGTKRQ

Turning to `Cc1c(Cc2ccc(-c3cn(C)nn3)nc2)cc2c(=O)n([C@H]3CCOC[C@@H]3O)cnc2c1C` [Example 2, 1,5-anhydro-2,3-dideoxy-3-(7,8-dimethyl-6-((6-(1-methyl-1H-1,2,3-triazol-4-yl)pyridin-3-yl)methyl)-4-oxoquinazolin-3(4H)-yl)-L-threo-pentitol], the “number of feces 2 hr later” value in the data set on Male ICR mice (1 mg/kg orally) is reported as 5.0 ± 0.7. Further, the “number of feces 2 hr later” value with Male ICR mice (3 mg/kg orally) is given as 11.3 ± 0.6. Further, in data set [1], the Tmax was 1 h, the mean residence time MRT turned out to be 1 h and the clearance was 10.9 mL/min/kg. Besides, the efflux ratio at 1 hr, 1 μM at MDR1 was determined as 18.

For `CNC(=O)c1ccc(Cc2cc3c(=O)n([C@H]4CCOC[C@@H]4O)cnc3c(C)c2C)cc1F` [Example 3, 1,5-anhydro-2,3-dideoxy-3-(6-(3-fluoro-4-(methylcarbamoyl)benzyl)-7,8-dimethyl-4-oxoquinazolin-3(4H)-yl)-L-threo-pentitol], the “number of feces 2 hr later” value in the data set on Male ICR mice (1 mg/kg orally) is reported as 14.0 ± 1.0. Also, in data set [1], the Tmax is 1.7 h, the MRT was determined as 1.9 h and the clearance is 10.2 mL/min/kg. Also, the efflux ratio at 1 hr, 1 μM on MDR1 is 6.

Turning to `Cc1nn(C)cc1-c1ccc(Cc2cc3c(=O)n([C@H]4CCOC[C@@H]4O)cnc3c(C)c2C)cn1` [Example 5, 1,5-anhydro-2,3-dideoxy-3-(6-((6-(1,3-dimethyl-1H-pyrazol-4-yl)pyridin-3-yl)methyl)-7,8-dimethyl-4-oxoquinazolin-3(4H)-yl)-L-threo-pentitol], the “number of feces 2 hr later” value in the data set on Male ICR mice (1 mg/kg orally) is on record as 5.6 ± 1.0. Besides, in the data set on Male ICR mice (3 mg/kg orally), the “number of feces 2 hr later” value is 8.4 ± 2.6. For the same compound, in data set [1], the time of peak concentration (Tmax) was found to be 0.7 h, the MRT is 1.2 h and the clearance is 7.45 mL/min/kg. For the same compound, the efflux ratio at 1 hr, 1 μM at MDR1 amounted to 15.

On to `Cc1c(Cc2ccc(-c3cnn(C)c3)nc2)cc2c(=O)n([C@H]3CCOC[C@@H]3O)cnc2c1C` [Example 6, 1,5-anhydro-2,3-dideoxy-3-(7,8-dimethyl-6-((6-(1-methyl-1H-pyrazol-4-yl)pyridin-3-yl)methyl)-4-oxoquinazolin-3(4H)-yl)-L-threo-pentitol], for which the “number of feces 2 hr later” value in the data set with Male ICR mice (1 mg/kg orally) is recorded as 7.2 ± 1.8. In the data set on Male ICR mice (3 mg/kg orally), the “number of feces 2 hr later” value was determined as 8.2 ± 1.0. For the same compound, in data set [1], the Tmax turned out to be 1.7 h, the mean residence time MRT is 1.4 h and the clearance is 4.55 mL/min/kg. Moreover, at MDR1, the efflux ratio at 1 hr, 1 μM came out at 11.

For `CNC(=O)c1ccc(Cc2cc3c(=O)n([C@H]4CCOC[C@@H]4O)nnc3c(Cl)c2C)cc1F` [Example 19, 1,5-anhydro-3-(8-chloro-6-(3-fluoro-4-(methylcarbamoyl)benzyl)-7-methyl-4-oxo-1,2,3-benzotriazin-3(4H)-yl)-2,3-dideoxy-L-threo-pentitol], the “number of feces 2 hr later” value in the data set with Male ICR mice (1 mg/kg orally) is recorded as 12.6 ± 1.2. Moreover, in data set [1], the Tmax was 1.7 h, the MRT is 2.5 h and the clearance was 4.57 mL/min/kg. Also, the efflux ratio at 1 hr, 1 μM at MDR1 turned out to be 4.6.

Turning to `COCCNC(=O)c1ccc(Cc2cc3c(=O)n([C@H]4CCOC[C@@H]4O)cnc3c(C)c2C)cc1F` [Example 66, 1,5-anhydro-2,3-dideoxy-3-(6-(3-fluoro-4-((2-methoxyethyl)carbamoyl)benzyl)-7,8-dimethyl-4-oxoquinazolin-3(4H)-yl)-L-threo-pentitol], the “number of feces 2 hr later” value with Male ICR mice (1 mg/kg orally) was 9.3 ± 1.2. For the same compound, in data set [1], the Tmax amounted to 0.7 h, the mean residence time (MRT) was determined as 0.8 h and the clearance is 26.6 mL/min/kg. For the same compound, the efflux ratio at 1 hr, 1 μM at MDR1 is 7.

As to `Cc1c(Cc2ccc(C(=O)NC[C@H]3CCCO3)c(F)c2)cc2c(=O)n([C@H]3CCOC[C@@H]3O)cnc2c1C` [Example 81, 1,5-anhydro-2,3-dideoxy-3-(6-(3-fluoro-4-(((2R)-tetrahydrofuran-2-ylmethyl)carbamoyl)benzyl)-7,8-dimethyl-4-oxoquinazolin-3(4H)-yl)-L-threo-pentitol], in data set [1], the Tmax is 0.5 h, the MRT was determined as 0.5 h and the clearance is 72.2 mL/min/kg. Also, the efflux ratio at 1 hr, 1 μM at MDR1 stood at 8.6.
